Data reported in patent US20090030024A1, “THIAZOLES AS FUNGICIDES” (priority 2005, published 2009).

Assay: logP determination by retention times (calibration with alkan-2-ones)
[1] = logP, values marked *: HPLC on reversed-phase C 18, 40° C., mobile phase 0.1% aqueous formic acid and acetonitrile, linear gradient 10% to 95% acetonitrile
[2] = values marked *: HPLC on reversed-phase C 18, 40° C., mobile phase 0.1% aqueous formic acid and acetonitrile, linear gradient 10% to 95% acetonitrile

Work on `COCCNc1nc(C)c(-c2ccnc(Nc3ccc(C#N)cc3)n2)s1` [Example 807, 4-[(4-{2-[(2-methoxyethyl)amino]-4-methyl-1,3-thiazol-5-yl}pyrimidin-2-yl)amino]benzonitrile] yielded a chromatographic logP (logP, * HPLC reversed-phase C18, 40° C., mobile phase 0.1% aqueous formic acid and acetonitrile, linear gradient 10% to 95% acetonitrile) of 1.9.

`COCCNc1nc(C)c(-c2ccnc(Nc3ccc(O)cc3)n2)s1` [Example 808, 4-[(4-{2-[(2-methoxyethyl)amino]-4-methyl-1,3-thiazol-5-yl}pyrimidin-2-yl)amino]phenol] showed a chromatographic logP [1] of 1.22.

Work on `Cc1nc(NCC2CCCO2)sc1-c1ccnc(Nc2ccc(F)cc2F)n1` (centres unmarked) [Example 809, N-(2,4-difluorophenyl)-4-{4-methyl-2-[(tetrahydrofuran-2-ylmethyl)amino]-1,3-thiazol-5-yl}pyrimidine-2-amine] yielded a chromatographic logP [1] of 2.09.

`Cc1ccc(Nc2nccc(-c3sc(NCC4CCCO4)nc3C)n2)cc1[N+](=O)[O-]` (centres unmarked) [Example 810, N-(4-methyl-3-nitrophenyl)-4-{4-methyl-2-[(tetrahydrofuran-2-ylmethyl)amino]-1,3-thiazol-5-yl}pyrimidine-2-amine] gave a chromatographic logP [1] of 2.33.

Work on `CC(=O)c1ccc(Nc2nccc(-c3sc(NCC4CCCO4)nc3C)n2)cc1` (centres unmarked) [Example 816, 1-{4-[(4-{4-methyl-2-[(tetrahydrofuran-2-ylmethyl)amino]-1,3-thiazol-5-yl}pyrimidin-2-yl)amino]phenyl}ethanone] yielded a chromatographic logP [1] of 1.83.

Work on `COc1ccc(Nc2nccc(-c3sc(NCC4CCCO4)nc3C)n2)cc1OC` (centres unmarked) [Example 817, N-(3,4-dimethoxyphenyl)-4-{4-methyl-2-[(tetrahydrofuran-2-ylmethyl)amino]-1,3-thiazol-5-yl}pyrimidine-2-amine] yielded a chromatographic logP [1] of 1.65.

`CC(=O)Nc1cccc(Nc2nccc(-c3sc(C(C)C)nc3C)n2)c1` [Example 818, N-(3-{[4-(2-isopropyl-4-methyl-1,3-thiazol-5-yl)pyrimidin-2-yl]amino}phenyl)acetamide] gave a chromatographic logP [1] of 2.26.

In the case of `COc1ccc(Nc2nccc(-c3sc(C(C)C)nc3C)n2)cc1OC` [Example 819, N-(3,4-dimethoxyphenyl)-4-(2-isopropyl-4-methyl-1,3-thiazol-5-yl)pyrimidine-2-amine], the chromatographic logP [1] is reported as 2.85.

In the case of `CC(=O)c1ccc(Nc2nccc(-c3sc(C(C)C)nc3C)n2)cc1` [Example 820, 1-(4-{[4-(2-isopropyl-4-methyl-1,3-thiazol-5-yl)pyrimidin-2-yl]amino}phenyl)ethanone], the chromatographic logP [1] is reported as 3.06.

In the case of `COc1ccc(Nc2nccc(-c3sc(C(C)C)nc3C)n2)cc1` [Example 821, 4-(2-isopropyl-4-methyl-1,3-thiazol-5-yl)-N-(4-methoxyphenyl)pyrimidine-2-amine], the chromatographic logP [1] is reported as 3.25.

Work on `Cc1nc(C(C)C)sc1-c1ccnc(Nc2ccc(N3CCCC3=O)cc2)n1` [Example 831, 1-(4-{[4-(2-isopropyl-4-methyl-1,3-thiazol-5-yl)pyrimidin-2-yl]amino}phenyl)pyrrolidin-2-one] yielded a chromatographic logP [1] of 2.56.

Work on `COCCNc1nc(C)c(-c2ccnc(Nc3ccc(F)cc3F)n2)s1` [Example 832, N-(2,4-difluorophenyl)-4-{2-[(2-methoxyethyl)amino]-4-methyl-1,3-thiazol-5-yl}pyrimidine-2-amine] yielded a chromatographic logP [1] of 1.99.

Molecule `CCc1nc(C)c(-c2ccnc(Nc3ccc(F)c(N4CCN(C(C)=O)CC4)c3)n2)s1` [Example 848, N-[3-(4-acetylpiperazin-1-yl)-4-fluorophenyl]-4-(2-ethyl-4-methyl-1,3-thiazol-5-yl)pyrimidine-2-amine] has a chromatographic logP [1] of 2.42.

In the case of `Cc1nc(N(C)C)sc1-c1ccnc(Nc2ccc(F)cc2)n1` [Example 849, 4-[2-(dimethylamine)-4-methyl-1,3-thiazol-5-yl]-N-(4-fluorophenyl)pyrimidine-2-amine], the logP [2] is reported as 1.99*.

For `COc1cc(Nc2nccc(-c3sc(N(C)C)nc3C)n2)cc(OC)c1OC` [Example 850, 4-[2-(dimethylamine)-4-methyl-1,3-thiazol-5-yl]-N-(3,4,5-trimethoxyphenyl)pyrimidine-2-amine], the logP [2] was 1.77*.

In the case of `COCCCNc1nc(C)c(-c2ccnc(Nc3ccc(F)cc3)n2)s1` [Example 851, N-(4-fluorophenyl)-4-{2-[(3-methoxypropyl)amino]-4-methyl-1,3-thiazol-5-yl}pyrimidine-2-amine], the chromatographic logP [1] is reported as 1.92.

For `COCCCNc1nc(C)c(-c2ccnc(Nc3cccc(OC)c3)n2)s1` [Example 852, N-(3-methoxyphenyl)-4-{2-[(3-methoxypropyl)amino]-4-methyl-1,3-thiazol-5-yl}pyrimidine-2-amine], the chromatographic logP [1] was 1.89.

Work on `COCCCNc1nc(C)c(-c2ccnc(Nc3cccc(NC(C)=O)c3)n2)s1` [Example 853, N-{3-[(4-{2-[(3-methoxypropyl)amino]-4-methyl-1,3-thiazol-5-yl}pyrimidin-2-yl)amino]phenyl}acetamide] yielded a chromatographic logP [1] of 1.44.

`COCCCNc1nc(C)c(-c2ccnc(Nc3ccc(NC(C)=O)cc3)n2)s1` [Example 854, N-{4-[(4-{2-[(3-methoxypropyl)amino]-4-methyl-1,3-thiazol-5-yl}pyrimidin-2-yl)amino]phenyl}acetamide] gave a chromatographic logP [1] of 1.4.

For `COCCCNc1nc(C)c(-c2ccnc(Nc3ccc(C(C)=O)cc3)n2)s1` [Example 855, 1-{4-[(4-{2-[(3-methoxypropyl)amino]-4-methyl-1,3-thiazol-5-yl}pyrimidin-2-yl)amino]phenyl}ethanone], the chromatographic logP [1] was 1.81.

For `COCCCNc1nc(C)c(-c2ccnc(Nc3ccc(N4CCCC4=O)cc3)n2)s1` [Example 856, 1-{4-[(4-{2-[(3-methoxypropyl)amino]-4-methyl-1,3-thiazol-5-yl}pyrimidin-2-yl)amino]phenyl}pyrrolidin-2-one], the chromatographic logP [1] was 1.57.

`COCCCNc1nc(C)c(-c2ccnc(Nc3ccc(F)c(C)c3)n2)s1` [Example 857, N-(4-fluoro-3-methylphenyl)-4-{2-[(3-methoxypropyl)amino]-4-methyl-1,3-thiazol-5-yl}pyrimidine-2-amine] showed a chromatographic logP [1] of 2.11.

In the case of `COCCCNc1nc(C)c(-c2ccnc(Nc3ccc(OC)nc3)n2)s1` [Example 858, 4-{2-[(3-methoxypropyl)amino]-4-methyl-1,3-thiazol-5-yl}-N-(6-methoxypyridin-3-yl)pyrimidine-2-amine], the chromatographic logP [1] is reported as 1.57.

In the case of `CN(C)c1nc(C(F)(F)F)c(-c2ccnc(Nc3cccc([N+](=O)[O-])c3)n2)s1` [Example 859, 4-[2-(dimethylamine)-4-(trifluoromethyl)-1,3-thiazol-5-yl]-N-(3-nitrophenyl)pyrimidine-2-amine], the logP [2] is reported as 3.99*.

For `CC(=O)Nc1cccc(Nc2nccc(-c3sc(N(C)C)nc3C(F)(F)F)n2)c1` [Example 860, N-[3-({4-[2-(dimethylamine)-4-(trifluoromethyl)-1,3-thiazol-5-yl]pyrimidin-2-yl}amino)phenyl]acetamide], the logP [2] was 2.65*.

For `COCCCNc1nc(C)c(-c2ccnc(Nc3cccc(N4CCCC4=O)c3)n2)s1` [Example 861, 1-{3-[(4-{2-[(3-methoxypropyl)amino]-4-methyl-1,3-thiazol-5-yl}pyrimidin-2-yl)amino]phenyl}pyrrolidin-2-one], the chromatographic logP [1] was 1.62.

With `CC(=O)Nc1ccc(Nc2nccc(-c3sc(N(C)C)nc3C)n2)cc1` [Example 862, N-[4-({4-[2-(dimethylamine)-4-methyl-1,3-thiazol-5-yl]pyrimidin-2-yl}amino)phenyl]acetamide] the logP [2] was 1.33*.

Molecule `CCc1nc(C)c(-c2ccnc(Nc3ccc(F)c(OC)c3)n2)s1` [Example 863, 4-(2-ethyl-4-methyl-1,3-thiazol-5-yl)-N-(4-fluoro-3-methoxyphenyl)pyrimidine-2-amine] has a chromatographic logP [1] of 2.99.

Work on `COCC(C)Nc1nc(C)c(-c2ccnc(Nc3ccc(S(N)(=O)=O)cc3)n2)s1` (centres unmarked) [Example 864, 4-[(4-{2-[(2-methoxy-1-methylethyl)amino]-4-methyl-1,3-thiazol-5-yl}pyrimidin-2-yl)amino]benzenesulphonamide] yielded a chromatographic logP [1] of 1.49.

`COCCCNc1nc(C)c(-c2ccnc(Nc3cccc([N+](=O)[O-])c3)n2)s1` [Example 865, 4-{2-[(3-methoxypropyl)amino]-4-methyl-1,3-thiazol-5-yl}-N-(3-nitrophenyl)pyrimidine-2-amine] showed a chromatographic logP [1] of 2.03.

In the case of `COCCCNc1nc(C)c(-c2ccnc(Nc3cc(OC)c(OC)c(OC)c3)n2)s1` [Example 866, 4-{2-[(3-methoxypropyl)amino]-4-methyl-1,3-thiazol-5-yl}-N-(3,4,5-trimethoxyphenyl)pyrimidine-2-amine], the chromatographic logP [1] is reported as 1.73.

In the case of `CC(=O)c1ccc(Nc2nccc(-c3sc(N(C)C)nc3C)n2)cc1` [Example 867, 1-[4-({4-[2-(dimethylamine)-4-methyl-1,3-thiazol-5-yl]pyrimidin-2-yl}amino)phenyl]ethanone], the logP [2] is reported as 1.9*.

`COCCNc1nc(C)c(-c2ccnc(Nc3ccc(Cl)nc3)n2)s1` [Example 872, N-(6-chloropyridin-3-yl)-4-{2-[(2-methoxyethyl)amino]-4-methyl-1,3-thiazol-5-yl}pyrimidine-2-amine] showed a chromatographic logP [1] of 1.71.

`Cc1nc(C)c(-c2nc(Nc3ccccc3)ncc2Cl)s1` [Example 873, 5-chloro-4-(2,4-dimethyl-1,3-thiazol-5-yl)-N-phenylpyrimidine-2-amine] showed a chromatographic logP [1] of 3.26.

In the case of `COc1cc(Nc2ncc(Cl)c(-c3sc(C)nc3C)n2)cc(OC)c1OC` [Example 874, 5-Chloro-4-(2,4-dimethyl-1,3-thiazol-5-yl)-N-(3,4,5-trimethoxyphenyl)-pyrimidine-2-amine], the chromatographic logP (logP(HCOOH), HCOOH) is reported as 2.82 and the chromatographic logP [1] is reported as 2.82.

`Cc1nc(C)c(-c2nc(Nc3cccc(Cl)c3)ncc2Cl)s1` [Example 875, 5-chloro-N-(3-chlorophenyl)-4-(2,4-dimethyl-1,3-thiazol-5-yl)pyrimidine-2-amine] gave a chromatographic logP [1] of 3.86.

`CCc1nc(C)c(-c2nc(Nc3ccccc3)ncc2Cl)s1` [Example 876, 5-chloro-4-(2-ethyl-4-methyl-1,3-thiazol-5-yl)-N-phenylpyrimidine-2-amine] gave a chromatographic logP [1] of 3.78.
